Structures are written as SMILES. ≈ marks a conversion by molar mass, not a printed value. Some results are limits rather than exact numbers.

Data on eleven compounds can be found in ChEMBL document CHEMBL1932964, “Lead optimisation of pyrazoles as novel FPR1 antagonists” (Bioorg Med Chem Lett, 2012).

The target in one series is T1, fMet-Leu-Phe receptor (Homo sapiens, UniProt P21462).
T1 sequence (P21462 whole entry): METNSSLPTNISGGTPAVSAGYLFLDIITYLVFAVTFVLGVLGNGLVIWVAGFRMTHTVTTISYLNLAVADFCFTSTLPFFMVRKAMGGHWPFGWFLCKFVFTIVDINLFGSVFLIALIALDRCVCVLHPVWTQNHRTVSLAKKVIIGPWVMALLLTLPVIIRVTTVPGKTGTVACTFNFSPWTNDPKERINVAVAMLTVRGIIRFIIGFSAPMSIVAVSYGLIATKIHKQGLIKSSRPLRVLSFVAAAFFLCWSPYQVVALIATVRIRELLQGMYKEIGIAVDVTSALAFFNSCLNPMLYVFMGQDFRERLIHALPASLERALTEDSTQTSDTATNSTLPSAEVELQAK
The series can be described thus: Antagonist activity at human recombinant FPR1 in expressed in HEK293 cells assessed as inhibition of FMLP-stimulated intracellular calcium mobilisation after 1 hr by FLIPR assay. Type of series: functional, cell-based.

A short description of series [1]: Intrinsic clearance in Sprague-Dawley rat hepatocytes assessed per 10^6 cells measured after 90 mins.
For series [2], the target named is T2, fMet-Leu-Phe receptor (Homo sapiens) (UniProt P21462).
T2 sequence (whole entry): T1 sequence (P21462 whole entry)
In words: Antagonist activity at human recombinant FPR1 in expressed in HEK293 cells assessed as inhibition of FMLP-stimulated intracellular calcium mobilisation at 30 uM after 1 hr by FLIPR assay. Type of series: functional, cell-based.

A short description of series [3]: Intrinsic clearance in human liver microsomes measured after 45 mins post NADPH addition.
A short description of series [4]: Intrinsic clearance in human hepatocytes assessed per 10^6 cells measured after 90 mins.
Series [5] is described as follows: […] pKa of the compound. Type of series: physicochemical.
Series [6] in a line: Thermodynamic solubility of compound by shake-flask technique. Type of series: physicochemical. The following applies: read-out: Therm_solubility.
Series [7] concerns Plasma. The series can be described thus: (§1) Fraction unbound in human plasma. Type of series: ADME, cell-free.
The test system of series [8] is Plasma. In words: (§2) Fraction unbound in Sprague-Dawley rat plasma. Type of series: ADME, cell-free.
Series [9] is described as follows: Ratio of drug level in blood to plasma in Sprague-Dawley rat. Type of series: ADME.
Series [10] has as its target T3, Solute carrier organic anion transporter family member 1B1 (Homo sapiens, UniProt Q9Y6L6).
T3 sequence (Q9Y6L6 whole entry): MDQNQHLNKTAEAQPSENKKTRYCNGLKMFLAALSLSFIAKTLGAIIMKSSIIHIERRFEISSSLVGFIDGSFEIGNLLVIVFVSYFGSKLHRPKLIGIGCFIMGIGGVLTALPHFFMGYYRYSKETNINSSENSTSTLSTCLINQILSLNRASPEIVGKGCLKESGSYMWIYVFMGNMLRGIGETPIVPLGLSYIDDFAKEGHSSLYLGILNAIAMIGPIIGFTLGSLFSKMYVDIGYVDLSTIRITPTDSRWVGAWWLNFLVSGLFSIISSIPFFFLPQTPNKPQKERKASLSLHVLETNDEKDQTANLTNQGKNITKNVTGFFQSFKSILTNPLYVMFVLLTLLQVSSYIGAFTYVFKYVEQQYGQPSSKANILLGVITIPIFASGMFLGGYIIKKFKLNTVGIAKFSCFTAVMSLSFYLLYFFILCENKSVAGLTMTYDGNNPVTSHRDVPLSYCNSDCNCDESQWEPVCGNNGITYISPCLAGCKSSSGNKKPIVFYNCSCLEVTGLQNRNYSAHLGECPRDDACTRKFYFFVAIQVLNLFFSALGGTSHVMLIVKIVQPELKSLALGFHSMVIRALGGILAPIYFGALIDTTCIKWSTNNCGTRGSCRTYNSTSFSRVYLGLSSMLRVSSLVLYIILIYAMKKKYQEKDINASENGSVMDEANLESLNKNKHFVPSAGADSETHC
The series can be described thus: Inhibition of OATP1B1 transporter.

A further series concerns Liver. The series can be described thus: Intrinsic clearance in rat liver microsomes assessed as media loss of parent compound per million cells.
A short description of series [11]: Clearance in Sprague-Dawley rat at 2 mg/kg, iv. The following applies: in vivo.
Series [12] can be described thus: Half life in Sprague-Dawley rat at 2 mg/kg, iv. The following applies: in vivo.
The nature of series [13]: Volume of distribution at steady state in Sprague-Dawley rat at 2 mg/kg, iv. Type of series: ADME, organism-based. More on the design: dose 2 mg/kg, route intravenous. The following applies: in vivo, read-out: Vdss.
Series [14] is described as follows: Oral bioavailability in Sprague-Dawley rat at 2 mg/kg. Type of series: ADME, organism-based. The following applies: in vivo.
The nature of series [15]: as §1. Type of series: ADME, cell-free.
The nature of series [16]: as §2. Type of series: ADME, cell-free. The following applies: Sprague-Dawley.
A short description of series [17]: Plasma clearance in bile duct cannulated Sprague-Dawley rat. Type of series: ADME, organism-based.

Take `Cc1ccc(S(=O)(=O)Nc2c(C(=O)N[C@@H](C)C(C)(C)C)c(C)nn2C2CCC2)cc1`: on fMet-Leu-Phe receptor, the IC50 is 200 nM. In [1], the intrinsic clearance (hepatocyte CLint) at […] amounted to 17 µL/min/1e6 cells.
Regarding `Cc1ccc(S(=O)(=O)Nc2c(C(=O)N[C@@H](C)C(C)(C)C)c(C)nn2C2CCN(C)CC2)cc1`, in [2], the inhibition is under 30%.
In the case of `Cc1ccc(S(=O)(=O)Nc2c(C(=O)N[C@@H](C)C(C)(C)C)c(C)nn2C2CCN(CC(F)(F)F)CC2)cc1`, the 50% inhibitory concentration (IC50) on fMet-Leu-Phe receptor is 3160 nM.
On to `Cc1ccc(S(=O)(=O)Nc2c(C(=O)N[C@@H](C)C(C)(C)C)c(C)nn2-c2ccccc2)cc1`, for which, in series [3], the microsomal CLint at 0.75 h was 40 µL/min/mg. In [4], the hepatocyte CLint at […] was determined as 7 µL/min/1e6 cells. For the same compound, the pKa in series [5] amounted to 3.9. Besides, in series [6], the solubility thermodynamic amounted to 1030 µM (≈ 468 µg/mL). Also, the Fu with Plasma [7] stood at 4.2%; with Plasma [8], 1.1%. For the same compound, the blood plasma ratio in series [9] stood at 0.7. For the same compound, the IC50 in series [10] is 7940 nM. In the series with Liver, the CLH amounted to 412 µL/min. In series [11], this compound registered a clearance of 42 mL/min/kg. This compound gave a half-life in series [12] of 15 min. Further, in series [13], the Vd was determined as 0.45 L/kg. The same compound showed a bioavailability in series [14] of 19%.
For `CO[C@H]1CC[C@H](n2nc(C)c(C(=O)N[C@@H](C)C(C)(C)C)c2NS(=O)(=O)c2ccc(C)cc2)CC1`, in series [2], the inhibition is under 30%.
As for `Cc1nn(-c2ccc(F)cc2)c(NS(=O)(=O)c2ccc(C#N)cc2)c1C(=O)N[C@@H](C)C(C)(C)C`, the microsomal CLint at 0.75 h in [3] turned out to be 5 µL/min/mg. Further, the intrinsic clearance (hepatocyte CLint) at […] in series [4] was under 3 µL/min/1e6 cells; in [1], under 4 µL/min/1e6 cells. This compound also returned a pKa in series [5] of 3. Besides, the solubility thermodynamic in series [6] is over 2010 µM. The fraction unbound in [15] was 0.08; in series [16], 0.043. Moreover, in series [9], the blood plasma ratio was found to be 0.7. Moreover, the CLH in the series with Liver is 33 µL/min. Further, the clearance in series [11] amounted to 42 mL/min/kg; in series [17] it was 21 mL/min/kg. The half-life in [12] was 36 min. Moreover, the Vd in series [13] is 0.23 L/kg. For the same compound, the bioavailability in series [14] came to 5%.
Take `Cc1ccc(S(=O)(=O)Nc2c(C(=O)N[C@@H](C)C(C)(C)C)c(C)nn2C2CCOCC2)cc1`: the IC50 at fMet-Leu-Phe receptor is 316 nM.
Turning to `Cc1ccc(S(=O)(=O)Nc2c(C(=O)N[C@@H](C)C(C)(C)C)c(C)nn2CC(F)(F)F)cc1`, at fMet-Leu-Phe receptor, the 50% inhibitory concentration (IC50) is 3160 nM. The intrinsic metabolic clearance (hepatocyte CLint) at […] in series [1] was 74 µL/min/1e6 cells. Moreover, in the series with Liver, the CLH is 18 µL/min.
Regarding `COCC(C)n1nc(C)c(C(=O)N[C@@H](C)C(C)(C)C)c1NS(=O)(=O)c1ccc(C)cc1` (some centres not stated), the IC50 on fMet-Leu-Phe receptor is 2510 nM. In [1], this compound displayed a hepatocyte CLint at […] of under 3 µL/min/1e6 cells.
For `CCC(CC)n1nc(C)c(C(=O)N[C@@H](C)C(C)(C)C)c1NS(=O)(=O)c1ccc(C)cc1`, the IC50 at fMet-Leu-Phe receptor was 398 nM.
Take `Cc1ccc(S(=O)(=O)Nc2c(C(=O)N[C@@H](C)C(C)(C)C)c(C)nn2C2CCCC2)cc1`: the concentration for half-maximal inhibition (IC50) on fMet-Leu-Phe receptor was 79.4 nM. In [1], this compound returned an intrinsic clearance (hepatocyte CLint) at […] of 8 µL/min/1e6 cells. The CLH with Liver was 12 µL/min.
